Results reported in ChEMBL document CHEMBL1201862, “PubChem BioAssay data set” (2004).
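These data come from cells grown in 96-well plates and exposed to compound for 48 hours at five concentrations. At the GI50, growth is halved.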 Calls of active or inactive are those of the source. Cut-off read from the data, not from the text of the source: active = GI50 up to about 1.1 µM and inactive = higher.

Tests used:
Assay in all cases: NCI tumour cell line growth inhibition, 48 h
OVCAR-3 = test system: OVCAR-3
MDA-MB-435 = test system: MDA-MB-435
HCT-116 = test system: HCT-116
SN12C = test system: SN12C
OVCAR-4 = test system: OVCAR-4
PC-3 = test system: PC-3
SK-OV-3 = test system: SK-OV-3
SK-MEL-5 = test system: SK-MEL-5
NCI-H460 = test system: NCI-H460
BT-549 = test system: BT-549
SR = test system: SR
Hs-578T = test system: Hs-578T
KM12 = test system: KM12
HCC 2998 = test system: HCC 2998
IGROV-1 = test system: IGROV-1
RXF 393 = test system: RXF 393
OVCAR-5 = test system: OVCAR-5
UACC-62 = test system: UACC-62
SNB-19 = test system: SNB-19
EKVX = test system: EKVX

Measured: GI50

O=C(/C=C/c1ccccc1)CSc1nc2ccc(I)cc2c(=O)n1Cc1ccccc1
inactive: OVCAR-3 12.4 µM | MDA-MB-435 38.9 µM | HCT-116 19.8 µM | SN12C 9.86 µM | OVCAR-4 21.3 µM | PC-3 18.3 µM | SK-OV-3 29.6 µM | SK-MEL-5 12.7 µM | NCI-H460 15.6 µM | BT-549 > 77.4 µM | SR 8.81 µM | Hs-578T 25.3 µM | KM12 14.5 µM | HCC 2998 19.3 µM | IGROV-1 7.26 µM | RXF 393 17 µM | OVCAR-5 > 100 µM | UACC-62 35.2 µM | SNB-19 42.6 µM | EKVX 7.18 µM

CCCC(=O)C1=C(O)C(Cc2c(O)c(C)c(O)c(C(=O)CCC)c2O)=C(O)C(C)(C)C1=O
inactive: OVCAR-3 > 50 µM | MDA-MB-435 > 50 µM | HCT-116 12.6 µM | SN12C > 50 µM | OVCAR-4 43.6 µM | PC-3 19.1 µM | SK-OV-3 22.6 µM | SK-MEL-5 > 50 µM | NCI-H460 14.3 µM | BT-549 > 50 µM | SR 14.7 µM | Hs-578T 40.6 µM | KM12 23.8 µM | HCC 2998 10.9 µM | IGROV-1 37 µM | RXF 393 17 µM | OVCAR-5 11.9 µM | UACC-62 > 50 µM | SNB-19 20.7 µM | EKVX > 50 µM

Cc1ccc([N+](=O)[O-])cc1S(=O)(=O)Nc1ccc(C2=NN(S(=O)(=O)c3cc([N+](=O)[O-])ccc3C)C(c3cccs3)C2)cc1 (stereo not given)
inactive: OVCAR-3 19.6 µM | MDA-MB-435 50 µM | HCT-116 26.5 µM | SN12C 33.7 µM | OVCAR-4 37.4 µM | PC-3 30 µM | SK-OV-3 24.5 µM | SK-MEL-5 29 µM | NCI-H460 28.2 µM | BT-549 38.6 µM | SR 24.1 µM | Hs-578T 12.8 µM | KM12 30.1 µM | HCC 2998 22.9 µM | IGROV-1 46.3 µM | RXF 393 56.5 µM | OVCAR-5 74 µM | UACC-62 15.8 µM | SNB-19 45.2 µM | EKVX 29 µM

COc1ccc(C(O)/C(=N/N)c2nc3ccc(Cl)cc3nc2O)cc1 (stereo not given)
inactive: OVCAR-3 > 100 µM | MDA-MB-435 > 100 µM | HCT-116 > 100 µM | SN12C > 100 µM | OVCAR-4 > 100 µM | PC-3 > 100 µM | SK-OV-3 > 100 µM | SK-MEL-5 > 100 µM | NCI-H460 > 100 µM | BT-549 > 100 µM | SR > 100 µM | Hs-578T > 100 µM | KM12 > 100 µM | HCC 2998 > 100 µM | IGROV-1 > 100 µM | RXF 393 > 100 µM | OVCAR-5 > 100 µM | UACC-62 > 100 µM | SNB-19 > 100 µM | EKVX > 100 µM
